Source: paper PMC3407795 (EJNMMI Research, 2012)
Read-outs that look alike come from different tables or passages of the source.

How the values were obtained:
[1] = Biodistribution in HEK293-hsst3+ tumor-bearing mice; type: in vivo; conditions: mouse, iv, total radioactivity, HEK293-hsst3+ tumor SCID mice, 4 h pi, mean ± SD
Experimental: (§1) In the flanks of SCID mice, inocula (150 μL) containing a suspension of 1.8 × 10^7 HEK293-hsst2A^+, -hsst3^+ or -hsst5^+ cells in PBS were subcutaneously injected. Tumors of substantial size were grown within 3 weeks, whereupon biodistribution experiments were performed.
(§2) The in vivo data presented as mean %ID/g ± SD (n ≥ 4) were statistically analyzed with Student’s t test (Prism^TM 2.01, GraphPad Software, San Diego, CA, USA). Analyses were 2-tailed, and a P value < 0.05 was considered statistically significant.

[2] = Biodistribution in HEK293-hsst2A+ tumor-bearing mice; type: in vivo; conditions: mouse, iv, total radioactivity, HEK293-hsst2A+ tumor SCID mice, mean ± SD
Experimental: as §1, §2

[3] = Biodistribution in healthy mice; type: in vivo; conditions: male, mouse, total radioactivity, healthy Swiss albino mice
Experimental: In the in vivo receptor blockade animal group, excess Tate (50 nmol) was administered intravenously (iv) together with the radioligand. Animals were sacrificed in groups of four at 4- and 24-h time points post injection (pi). […] Tissue distribution data were calculated as percent injected dose per gram (%ID/g) applying a suitable algorithm.
as §2

[4] = Biodistribution in HEK293-hsst5+ tumor-bearing mice; type: in vivo; conditions: mouse, iv, total radioactivity, HEK293-hsst5+ tumor SCID mice, 4 h pi, mean ± SD
Experimental: as §1, §2

[5] = Metabolism in blood (in vivo stability); set-up: species or system mouse; conditions: healthy male Swiss albino mice, blood collected 5 min after iv injection (3 nmol), RP-HPLC radioanalysis
Experimental: The animals were kept for 5 min in cages with free access to water. They were sacrificed by cardiac puncture under ether anesthesia, and blood was withdrawn with a syringe and immediately placed in a pre-chilled EDTA-containing polypropylene vial on ice. Blood samples were centrifuged at 2,000 × g at 4 °C for 10 min.

[6] = Biodistribution in AR4-2J tumor-bearing mice; type: in vivo; conditions: female, mouse, iv, total radioactivity, AR4-2J tumor SCID mice, 1 h pi, mean ± SD
[7] = Biodistribution in AR4-2J tumor-bearing mice; type: in vivo; conditions: female, mouse, iv, total radioactivity, AR4-2J tumor SCID mice, mean ± SD; for tissue uptake at 1 h: 1 h pi
Experimental: In the flanks of each of female SCID mice, inocula (150 μL) containing a suspension of 0.8 × 10^7 AR4-2J cells in PBS buffer were subcutaneously injected. […] Mice were sacrificed at 4 h pi, and biodistribution was studied as described above.
as §2

[8] = blood, 10 pmol, read-out: Blood uptake
[9] = femur, 10 pmol, read-out: Femur uptake
[10] = heart, 10 pmol, read-out: Heart uptake
[11] = intestines, 10 pmol total peptide, read-out: Intestines uptake
[12] = 10 pmol, read-out: Tumor uptake
[13] = kidneys, 10 pmol, read-out: Kidneys uptake
[14] = liver, 10 pmol, read-out: Liver uptake
[15] = lung, 10 pmol total peptide, read-out: Lung uptake
[16] = muscle, 10 pmol total peptide, read-out: Muscle uptake
[17] = pancreas, 10 pmol, read-out: Pancreas uptake
[18] = spleen, 10 pmol total peptide, read-out: Spleen uptake
[19] = stomach, 10 pmol, read-out: Stomach uptake
[20] = blood, 10 pmol, 4 h pi, read-out: Blood uptake
[21] = femur, 10 pmol, 4 h pi, read-out: Femur uptake
[22] = heart, 10 pmol, 4 h pi, read-out: Heart uptake
[23] = intestines, 10 pmol total peptide, 4 h pi, read-out: Intestines uptake
[24] = 10 pmol, 4 h pi, read-out: Tumor uptake
[25] = kidneys, 10 pmol, 4 h pi, read-out: Kidneys uptake
[26] = liver, 10 pmol, 4 h pi, read-out: Liver uptake
[27] = lung, 10 pmol total peptide, 4 h pi, read-out: Lung uptake
[28] = muscle, 10 pmol total peptide, 4 h pi, read-out: Muscle uptake
[29] = pancreas, 10 pmol, 4 h pi, read-out: Pancreas uptake
[30] = spleen, 10 pmol total peptide, 4 h pi, read-out: Spleen uptake
[31] = stomach, 10 pmol, 4 h pi, read-out: Stomach uptake

Structure (SMILES): C[C@H](NC(=O)CN1CCN(CC(=O)O)CCN(CC(=O)O)CCN(CC(=O)O)CC1)C(=O)NCC(=O)N[C@H]1CSSC[C@@H](C(=O)O)NC(=O)[C@H](CO)NC(=O)[C@H]([C@@H](C)O)NC(=O)[C@H](Cc2ccccc2)NC(=O)[C@H]([C@@H](C)O)NC(=O)[C@H](CCCCN)NC(=O)[C@@H](Cc2c[nH]c3ccccc23)NC(=O)[C@H](Cc2ccccc2)NC(=O)[C@H](Cc2ccccc2)NC(=O)[C@H](CC(N)=O)NC(=O)[C@H](CCCCN)NC1=O [[^111In]AT2S, metal not drawn]
- tissue uptake at 4 h [1, 8]: 0.19 ± 0.03 %ID/g
- tissue uptake at 4 h [1, 9]: 0.23 ± 0.03 %ID/g
- tissue uptake at 4 h [1, 10]: 0.15 ± 0.04 %ID/g
- tissue uptake at 4 h [1, 11]: 2.39 ± 0.43 %ID/g
- tissue uptake at 4 h [1, 12]: 1.24 ± 0.27 %ID/g
- tissue uptake at 4 h [1, 13]: 23.4 ± 4.69 %ID/g
- tissue uptake at 4 h [1, 14]: 1.02 ± 0.19 %ID/g
- tissue uptake at 4 h [1, 15]: 0.68 ± 0.29 %ID/g
- tissue uptake at 4 h [1, 16]: 0.06 ± 0.01 %ID/g
- tissue uptake at 4 h [1, 17]: 3.33 ± 0.4 %ID/g
- tissue uptake at 4 h [1, 18]: 0.82 ± 0.11 %ID/g
- tissue uptake at 4 h [1, 19]: 3.41 ± 0.97 %ID/g
- tissue uptake at 4 h [2, 20]: 0.23 ± 0.07 %ID/g
- tissue uptake at 4 h ([2]; blood, 4 h pi + co-injection of 35 nmol DP2, read-out: Blood uptake, blocked): 0.66 ± 0.35 %ID/g
- tissue uptake at 4 h [2, 21]: 0.24 ± 0.09 %ID/g
- tissue uptake at 4 h ([2]; femur, 4 h pi + co-injection of 35 nmol DP2, read-out: Femur uptake, blocked): 0.21 ± 0.11 %ID/g
- tissue uptake at 4 h [2, 22]: 0.22 ± 0.05 %ID/g
- tissue uptake at 4 h ([2]; heart, 4 h pi + co-injection of 35 nmol DP2, read-out: Heart uptake, blocked): 0.38 ± 0.1 %ID/g
- tissue uptake at 4 h [2, 23]: 2 ± 0.48 %ID/g
- tissue uptake at 4 h ([2]; intestines, 4 h pi + co-injection of 35 nmol DP2, read-out: Intestines uptake, blocked): 1.74 ± 1.02 %ID/g
- tissue uptake at 4 h [2, 24]: 1.49 ± 0.2 %ID/g
- tissue uptake at 4 h ([2]; 4 h pi + co-injection of 35 nmol DP2, read-out: Tumor uptake, blocked): 0.27 ± 0.2 %ID/g
- tissue uptake at 4 h [2, 25]: 23.2 ± 7.04 %ID/g
- tissue uptake at 4 h ([2]; kidneys, 4 h pi + co-injection of 35 nmol DP2, read-out: Kidneys uptake, blocked): 25.5 ± 3.7 %ID/g
- tissue uptake at 4 h [2, 26]: 1.31 ± 0.36 %ID/g
- tissue uptake at 4 h ([2]; liver, 4 h pi + co-injection of 35 nmol DP2, read-out: Liver uptake, blocked): 0.963 ± 0.67 %ID/g
- tissue uptake at 4 h [2, 27]: 1.37 ± 0.55 %ID/g
- tissue uptake at 4 h ([2]; lung, 4 h pi + co-injection of 35 nmol DP2, read-out: Lung uptake, blocked): 0.47 ± 0.08 %ID/g
- tissue uptake at 4 h [2, 28]: 0.07 ± 0.02 %ID/g
- tissue uptake at 4 h ([2]; muscle, 4 h pi + co-injection of 35 nmol DP2, read-out: Muscle uptake, blocked): 0.07 ± 0.03 %ID/g
- tissue uptake at 4 h [2, 29]: 5.73 ± 1.28 %ID/g
- tissue uptake at 4 h ([2]; pancreas, 4 h pi + co-injection of 35 nmol DP2, read-out: Pancreas uptake, blocked): 0.16 ± 0.1 %ID/g
- tissue uptake at 4 h [2, 30]: 0.46 ± 0.11 %ID/g
- tissue uptake at 4 h ([2]; spleen, 4 h pi + co-injection of 35 nmol DP2, read-out: Spleen uptake, blocked): 0.5 ± 0.36 %ID/g
- tissue uptake at 4 h [2, 31]: 1.96 ± 0.53 %ID/g
- tissue uptake at 4 h ([2]; stomach, 4 h pi + co-injection of 35 nmol DP2, read-out: Stomach uptake, blocked): 1.29 ± 0.36 %ID/g
- tissue uptake at 4 h ([3]; kidney, 10 pmol total peptide, 4 h pi, iv 10 pmol, read-out: Kidney uptake): 22.9 %ID/g
- tissue uptake at 24 h ([3]; kidney, 10 pmol total peptide, 24 h pi, iv 10 pmol): 7.6 %ID/g
- tissue uptake at 4 h ([3]; pancreas, 10 pmol total peptide, 4 h pi, iv 10 pmol, read-out: Pancreas uptake): 2.9 %ID/g
- tissue uptake at 4 h ([3]; pancreas, iv, 4 h pi + excess Tate (50 nmol), read-out: Pancreas uptake, sst2 blockade): 0.17 %ID/g
- tissue uptake at 4 h [4, 8]: 0.1 ± 0.04 %ID/g
- tissue uptake at 4 h [4, 10]: 0.15 ± 0.02 %ID/g
- tissue uptake at 4 h [4, 11]: 1.54 ± 0.09 %ID/g
- tissue uptake at 4 h [4, 12]: 0.41 ± 0.12 %ID/g
- tissue uptake at 4 h [4, 13]: 24.1 ± 1.21 %ID/g
- tissue uptake at 4 h [4, 14]: 1.1 ± 0.08 %ID/g
- tissue uptake at 4 h ([4]; lung, 10 pmol, read-out: Lung uptake): 0.56 ± 0.28 %ID/g
- tissue uptake at 4 h [4, 16]: 0.06 ± 0.01 %ID/g
- tissue uptake at 4 h [4, 17]: 2.79 ± 0.4 %ID/g
- tissue uptake at 4 h [4, 18]: 0.78 ± 0.07 %ID/g
- tissue uptake at 4 h [4, 19]: 3.06 ± 0.73 %ID/g
- intact radiopeptide detected in blood [5]: 6.5%
- tissue uptake at 1 h [6, 8]: 1.34 ± 0.21 %ID/g
- tissue uptake at 1 h [6, 9]: 0.49 ± 0.12 %ID/g
- tissue uptake at 1 h [6, 12]: 3.05 ± 0.51 %ID/g
- tissue uptake at 1 h [6, 18]: 0.84 ± 0.21 %ID/g
- tissue uptake at 4 h [7, 20]: 0.19 ± 0.02 %ID/g
- tissue uptake at 4 h ([7]; blood, 4 h pi + co-injection of 50 nmol Tate, read-out: Blood uptake, blocked): 0.26 ± 0.03 %ID/g
- tissue uptake at 4 h [7, 21]: 0.4 ± 0.24 %ID/g
- tissue uptake at 4 h ([7]; femur, 4 h pi + co-injection of 50 nmol Tate, read-out: Femur uptake, blocked): 0.19 ± 0.02 %ID/g
- tissue uptake at 1 h [7, 10]: 0.67 ± 0.12 %ID/g
- tissue uptake at 4 h [7, 22]: 0.18 ± 0.05 %ID/g
- tissue uptake at 4 h ([7]; heart, 4 h pi + co-injection of 50 nmol Tate, read-out: Heart uptake, blocked): 0.17 ± 0.04 %ID/g
- tissue uptake at 1 h [7, 11]: 1.98 ± 0.29 %ID/g
- tissue uptake at 4 h [7, 23]: 1.92 ± 0.25 %ID/g
- tissue uptake at 4 h ([7]; intestines, 4 h pi + co-injection of 50 nmol Tate, read-out: Intestines uptake, blocked): 0.77 ± 0.58 %ID/g
- tissue uptake at 4 h [7, 24]: 1.82 ± 0.36 %ID/g
- tissue uptake at 4 h ([7]; 4 h pi + co-injection of 50 nmol Tate, read-out: Tumor uptake, blocked): 0.21 ± 0.17 %ID/g
- tissue uptake at 1 h [7, 13]: 23.8 ± 4.28 %ID/g
- tissue uptake at 4 h [7, 25]: 21.1 ± 4.43 %ID/g
- tissue uptake at 4 h ([7]; kidneys, 4 h pi + co-injection of 50 nmol Tate, read-out: Kidneys uptake, blocked): 24.4 ± 9.15 %ID/g
- tissue uptake at 1 h [7, 14]: 1.27 ± 0.09 %ID/g
- tissue uptake at 4 h [7, 26]: 0.95 ± 0.21 %ID/g
- tissue uptake at 4 h ([7]; liver, 4 h pi + co-injection of 50 nmol Tate, read-out: Liver uptake, blocked): 1.02 ± 0.11 %ID/g
- tissue uptake at 1 h [7, 15]: 2.05 ± 0.52 %ID/g
- tissue uptake at 4 h [7, 27]: 1.43 ± 1.36 %ID/g
- tissue uptake at 4 h ([7]; lung, 4 h pi + co-injection of 50 nmol Tate, read-out: Lung uptake, blocked): 3.3 ± 4.93 %ID/g
- tissue uptake at 1 h [7, 16]: 0.22 ± 0.02 %ID/g
- tissue uptake at 4 h [7, 28]: 0.06 ± 0.01 %ID/g
- tissue uptake at 4 h ([7]; muscle, 4 h pi + co-injection of 50 nmol Tate, read-out: Muscle uptake, blocked): 0.07 ± 0.01 %ID/g
- tissue uptake at 1 h [7, 17]: 7.35 ± 0.74 %ID/g
- tissue uptake at 4 h [7, 29]: 5.13 ± 0.75 %ID/g
- tissue uptake at 4 h ([7]; pancreas, 4 h pi + co-injection of 50 nmol Tate, read-out: Pancreas uptake, blocked): 0.15 ± 0.05 %ID/g
- tissue uptake at 4 h [7, 30]: 1.1 ± 0.63 %ID/g
- tissue uptake at 4 h ([7]; spleen, 4 h pi + co-injection of 50 nmol Tate, read-out: Spleen uptake, blocked): 0.61 ± 0.18 %ID/g
- tissue uptake at 1 h [7, 19]: 3.23 ± 0.77 %ID/g
- tissue uptake at 4 h [7, 31]: 1.81 ± 0.47 %ID/g
- tissue uptake at 4 h ([7]; stomach, 4 h pi + co-injection of 50 nmol Tate, read-out: Stomach uptake, blocked): 0.18 ± 0.07 %ID/g
